Assay results published in US20080261918A1, “Silicon Compounds and Their Use” (priority 2003, published 2008).

Target: T1, human GnRH receptors (Homo sapiens, UniProt P30968)
T1 construct: expressed in transfected cells; host or cells: CHO-K1
T1 sequence (P30968 1-328): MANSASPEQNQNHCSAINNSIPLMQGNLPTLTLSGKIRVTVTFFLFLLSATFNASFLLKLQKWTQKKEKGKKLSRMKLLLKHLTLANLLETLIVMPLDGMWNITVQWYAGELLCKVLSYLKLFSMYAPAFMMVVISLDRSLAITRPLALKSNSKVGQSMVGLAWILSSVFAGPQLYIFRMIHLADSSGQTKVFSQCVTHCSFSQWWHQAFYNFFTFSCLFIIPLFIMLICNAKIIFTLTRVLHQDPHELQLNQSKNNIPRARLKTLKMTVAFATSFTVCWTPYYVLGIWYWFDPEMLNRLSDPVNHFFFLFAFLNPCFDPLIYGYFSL
Experiment: Human GnRH receptor functional assay (intracellular calcium release)
Format: cell-based
Settings: CHO-K1 cells expressing human GnRH receptors; block of GnRH (EC80)-induced calcium release; 20 min preincubation
Method: Human GnRH Receptor Functional Assay
GnRH-receptor antagonists may be functionally assessed by measurement of change in intracellular calcium levels induced by Gαq mediated increase in IP3 levels. The ability of compounds to block the intracellular release of calcium by GnRH in CHO-K1 cells expressing human GnRH receptors is determined as a measure of the compound's antagonist activity in vitro. Approximately 30,000 cells per assay well (half well 96 well assay plate—Corning) are seeded in normal culture medium. Twenty four hours after seeding the cells are loaded with a calcium sensitive fluorescent dye by replacing the culture medium with assay buffer (1×Hanks buffered saline, 25 mM HEPES, 0.1% w/v fatty acid free BSA, pH7.4) containing 2.5 mM probenecid and 1×Calcium Plus reagent (Molecular) Devices. Cells are incubated at 37° C. for 1 hour to allow for dye uptake. […] After incubation with test compounds the assay plate is placed in a Flexstation II (Molecular Devices) and GnRH is added at the determined EC80 concentration (final). Ligand-dependent changes in intracellular calcium levels are determined by measuring changes in fluorescence of the dye at […] following excitation at 485 nm. Percentage inhibition curves are plotted using 4-parameter fit algorithm and IC50 values calculated for each compound.

Work on COc1nc(N2CCC(N(C)C)C2)nc(OC)c1NC(=O)c1ccc(Oc2cc([Si](C)(C)C)ccc2C)o1 (stereo not shown) [Example 2, N-(2-(3-(dimethylamino)pyrrolidin-1-yl)-4,6-dimethoxypyrimidin-5-yl)-5-(2-methyl-5-(trimethylsilyl)phenoxy)furan-2-carboxamide] yielded an IC50 of 0.16 µM.
